Patent publication US11273170B2, “Methods of treating cancer” (Ascend Biopharmaceuticals Ltd, priority 2016, dated 2022)
“Also recorded” adds a separate entry of the source.

B1: purified IFN gamma: purified interferon gamma, cytokine (protein, UniProt P01579 24-161, looked up)
Interferon gamma: QDPYVKEAENLKKYFNAGHSDVADNGTLFLGILKNWKEESDRKIMQSQIVSFYFKLFKNFKDDQSIQKSVETIKEDMNVKFFNSNKKKRDDFEKLTNYSVTDLNVQRKAIHELIQVMAELSPAAKTGKRKRSQMLFRG

Columns and labels:
Assay type in all cases: cell-based
[1] = tested on: HeLa-RIP3^− or HeLa-RIP3^+ cells; assay: Dose response for chemotherapeutic agents, cell viability by trypan blue exclusion; settings: 48 hour exposure; for EC50: read-out: ED50 at 48 hours (cell death)
Procedure: HeLa-RIP3^− or HeLa-RIP3^+ cells (250,000/well) were seeded in six-well plates in complete DMEM medium, and after 24 hours, cells were treated with multiple doses of Fluorouracil. Cell viability was determined 48 hours post treatment via trypan blue exclusion analysis.
HeLa-RIP3^− or HeLa-RIP3^+ cells (250,000/well) were seeded in six-well plates in complete DMEM medium, and after 24 hours, cells were treated with multiple doses of the Trabectedin, Birinapant, or Cisplatin. Cell viability was determined 48 hours post treatment via trypan blue exclusion analysis.

HeLa-RIP3^− cells = settings: Birinapant 5 μM or 30 μM, 48 hours
Procedure: HeLa-RIP3^− cells (250,000/well) cells were plated in six-well plates 24 hours prior to infection. ASN-002 infections were performed in serum-free medium at multiplicities of infection (MOI) of 10. Two doses of Fluorouracil were co-administered with viruses, and cell death kinetics was analyzed over the period of 3 days.
HeLa-RIP3^− cells (250,000/well) cells were plated in six-well plates 24 hours prior to infection. ASN-002 infections were performed in serum-free medium at multiplicities of infection (MOI) of 10. Two doses of chemotherapeutic agents were co-administered with viruses, and cell death kinetics was analyzed over the period of 3 days.

[2] = tested on: HeLa (RIP3^+/necroptosis-competent) cells; assay: Cell death in the presence of inhibitors of apoptosis and necroptosis; settings: for cell death: no inhibitor, Trabectedin 2.5 nM (alone or plus AdCMV-NULL); for cell death in the presence of zVAD: pan caspase inhibitor zVAD 50 μM
Procedure: In order to understand which of several possible cell death pathways are activated by Fluorouracil or ASN-002 treatment alone and in combination, experiments were carried out with these agents in the presence of inhibitors of apoptosis and/or necroptosis in HeLa (RIP3^+/necroptosis-competent) cells.
(§1) In order to understand which of several possible cell death pathways are activated by Trabectedin treatment alone and in combination with IFN gamma (virus expressed or exogenously added), experiments were carried out with these agents, alone or in combination, in the presence of inhibitors of apoptosis and/or necroptosis inhibitors in both HeLa (RIP3^+/necroptosis-competent) cells and HeLa (RIP3^−/necroptosis-deficient) cells.

[3] = tested on: RIP3^− (necroptosis-deficient) HeLa cells; assay: Cell death in the presence of a pan caspase inhibitor of apoptosis; settings: for cell death: no inhibitor, Trabectedin alone or plus AdCMV-NULL
Procedure: In follow-up experiments, RIP3^− (necroptosis-deficient) HeLa cells were subjected to the same treatments as described above.
as §1

HeLa (RIP3^−) cells = assay: Induction of cell death by TNF alpha, trypan blue exclusion; settings: TNF alpha 50 ng/ml; under any condition; 12-15 hours
HeLa-RIP3^+ cells = assay: Induction of cell death by TNF alpha in the presence of cycloheximide and pan caspase inhibitor zVAD, trypan blue exclusion; settings: TNF alpha 50 ng/ml in the presence of cycloheximide (250 ng/ml) plus zVAD (50 μM); relative to untreated cells
Procedure: HeLa-RIP3 cells (250,000/well) were plated in six-well plates 24 hours prior to treatment with TNF alpha and cycloheximide (TCZ treatment). Cells were pre-treated with CHX (250 ng/ml) and the pan caspase inhibitor zVAD (50 μM) one hour before TNF alpha (50 ng/ml) treatment. Cell viability was determined after 12-15 hours by trypan blue exclusion analysis.

[4] = Fluorouracil 10 μM, Trabectedin 2.5 nM

| Molecule | EC50 [1] [µM] | cell death ([2]; Fluorouracil 10 μM) | cell death in the presence of zVAD [2, 4] | cell death in the presence of zVAD relative to treatment without inhibitor [3] | cell death [3] [%] | further results |
| --- | --- | --- | --- | --- | --- | --- |
| CC[C@H](NC(=O)[C@H](C)NC)C(=O)N1C[C@@H](O)C[C@H]1Cc1c(-c2[nH]c3cc(F)ccc3c2C[C@@H]2C[C@H](O)CN2C(=O)[C@H](CC)NC(=O)[C@H](C)NC)[nH]c2cc(F)ccc12 [Birinapant] | ~30 |  |  |  |  | cell death in combination with control adenovirus (Ad-CMV-NULL) relative to agent alone (HeLa-RIP3^− cells): same level of cell death as Birinapant alone; also recorded: indistinguishable from that induced by Birinapant alone |
| N.N.[Cl][Pt][Cl] [Cisplatin] |  |  |  |  |  | ED50 at 48 hours (cell death) [1]: ~10 µg/mL |
| O=c1[nH]cc(F)c(=O)[nH]1 [Fluorouracil] | ~50 | approximately 35% | about 80% | slightly lower |  | cell death in the presence of Necrosulfonamide (NSA) ([2]; necroptosis inhibitor NSA 1 μM, Fluorouracil 10 μM): 45% |
| COc1cc2c(cc1O)CCN[C@]21CS[C@@H]2c3c(OC(C)=O)c(C)c4c(c3[C@H](COC1=O)N1[C@@H]2[C@H]2c3c(cc(C)c(OC)c3O)C[C@@H]([C@@H]1O)N2C)OCO4 [Trabectedin] | ~0.01 | approximately 35% | about 95% |  | 33 | cell death in the presence of NSA relative to treatment without inhibitor ([2]; NSA): slightly lower; cell death in the presence of both zVAD and NSA ([2]; zVAD plus NSA, Fluorouracil 10 μM, Trabectedin 2.5 nM): about 60%; cell death in the presence of zVAD ([3]; pan caspase inhibitor zVAD): 87% |
| TNF alpha |  |  |  |  |  | induction of cell death (HeLa (RIP3^−) cells): failed to induce cell death; cell death (HeLa-RIP3^+ cells): about 70% |
| B1 |  | ~30% |  | marked, though not complete, rescue of cell death | ~30 | cell death in the presence of zVAD relative to treatment without inhibitor ([3]; listed as IFN gamma): significantly reduced cell death |
